{"source": "patent US5719121A", "about": "“Use of balhimycin as production promoter in animals, and production promoter compositions” (Hoechst Aktiengesellschaft, priority 1995, dated 1998)", "tested_on": "broilers", "assay": "Feeding experiment with balhimycin in broilers (floor management, 35 days): growth and feed utilization", "format": "in vivo", "details": "for Feed Intake, compared to the control value of 100% / Feed Utilization, compared to the control value of 100% / Live weight End, compared to the control value of 100% / Live weight Gain, compared to the control value of 100%: control = 100; for Feed Intake / Feed Utilization kg of FI/kg of LW / Live weight End: group mean", "experimental": "A feeding experiment with balhimycin was carried out in floor management using […] broilers (80 males and 80 females) which were divided into 5 groups:\n1st group: untreated control\n2nd group: balhimycin, 15 mg/kg of feed\n3rd group: balhimycin, 30 mg/kg of feed\n4th group: balhimycin, 45 mg/kg of feed\n5th group: balhimycin, 60 mg/kg of feed\nThe feed had the following composition (Table 1):\nThe animals were kept in boxes of 40 animals each and were given the feed mixtures for 35 days in accordance with their group assignment.\nIn Table 2, the first number in each column directed to weight change, feed intake, and feed utilization, indicates the number average for the broilers in each group. The second number indicates the standard deviation of the data. The third number indicates the percent difference of each group as compared to the control value of 100%.\nDifferent letters (a, b, ab, c) in the gain column denote significant differences between the groups (P<0.05). Values having the same letter or letters indicate that there is no significant difference between the groups.", "data": [{"smiles": "CNC(CC(C)C)C(=O)NC1C(=O)NC(CC(N)=O)C(=O)NC2C(=O)NC3C(=O)NC(C(=O)NC(C(=O)O)c4cc(O)cc(O)c4-c4cc3ccc4O)C(OC3C[C@](C)(N)C(=O)C(C)O3)c3ccc(c(Cl)c3)Oc3cc2cc(c3OC2O[C@H](CO)C(O)[C@H](O)C2O)Oc2ccc(cc2Cl)C1O", "note": "(stereo partly shown) [Balhimycin]", "values": [{"measurement": "Feed Intake, compared to the control value of 100%", "setting": "balhimycin 15 mg/kg of feed", "result": 99.9, "unit": "%"}, {"measurement": "Feed Utilization, compared to the control value of 100%", "setting": "balhimycin 15 mg/kg of feed", "result": 92.0, "unit": "%"}, {"measurement": "Live weight End, compared to the control value of 100%", "setting": "balhimycin 15 mg/kg of feed", "result": 108.1, "unit": "%"}, {"measurement": "Live weight Gain, compared to the control value of 100%", "setting": "balhimycin 15 mg/kg of feed", "result": 108.4, "unit": "%"}, {"measurement": "Feed Intake", "setting": "balhimycin 15 mg/kg of feed", "result": 72.5, "unit": "g/day"}, {"measurement": "Feed Utilization kg of FI/kg of LW", "setting": "balhimycin 15 mg/kg of feed", "result": "1.62 kg of FI/kg of LW"}, {"measurement": "Live weight End", "setting": "balhimycin 15 mg/kg of feed", "result": 1602.0, "unit": "g"}, {"measurement": "Feed Intake, compared to the control value of 100%", "setting": "balhimycin 30 mg/kg of feed", "result": 100.6, "unit": "%"}, {"measurement": "Feed Utilization, compared to the control value of 100%", "setting": "balhimycin 30 mg/kg of feed", "result": 93.8, "unit": "%"}, {"measurement": "Live weight End, compared to the control value of 100%", "setting": "balhimycin 30 mg/kg of feed", "result": 110.7, "unit": "%"}, {"measurement": "Live weight Gain, compared to the control value of 100%", "setting": "balhimycin 30 mg/kg of feed", "result": 110.8, "unit": "%"}, {"measurement": "Feed Intake", "setting": "balhimycin 30 mg/kg of feed", "result": 75.3, "unit": "g/day"}, {"measurement": "Feed Utilization kg of FI/kg of LW", "setting": "balhimycin 30 mg/kg of feed", "result": "1.65 kg of FI/kg of LW"}, {"measurement": "Live weight End", "setting": "balhimycin 30 mg/kg of feed", "result": 1640.0, "unit": "g"}, {"measurement": "Feed Intake, compared to the control value of 100%", "setting": "balhimycin 45 mg/kg of feed", "result": 100.6, "unit": "%"}, {"measurement": "Feed Utilization, compared to the control value of 100%", "setting": "balhimycin 45 mg/kg of feed", "result": 92.0, "unit": "%"}, {"measurement": "Live weight End, compared to the control value of 100%", "setting": "balhimycin 45 mg/kg of feed", "result": 109.1, "unit": "%"}, {"measurement": "Live weight Gain, compared to the control value of 100%", "setting": "balhimycin 45 mg/kg of feed", "result": 109.3, "unit": "%"}, {"measurement": "Feed Intake", "setting": "balhimycin 45 mg/kg of feed", "result": 73.0, "unit": "g/day"}, {"measurement": "Feed Utilization kg of FI/kg of LW", "setting": "balhimycin 45 mg/kg of feed", "result": "1.62 kg of FI/kg of LW"}, {"measurement": "Live weight End", "setting": "balhimycin 45 mg/kg of feed", "result": 1617.0, "unit": "g"}, {"measurement": "Feed Intake, compared to the control value of 100%", "setting": "balhimycin 60 mg/kg of feed", "result": 100.7, "unit": "%"}, {"measurement": "Feed Utilization, compared to the control value of 100%", "setting": "balhimycin 60 mg/kg of feed", "result": 93.2, "unit": "%"}, {"measurement": "Live weight End, compared to the control value of 100%", "setting": "balhimycin 60 mg/kg of feed", "result": 108.0, "unit": "%"}, {"measurement": "Live weight Gain, compared to the control value of 100%", "setting": "balhimycin 60 mg/kg of feed", "result": 108.1, "unit": "%"}, {"measurement": "Feed Intake", "setting": "balhimycin 60 mg/kg of feed", "result": 73.1, "unit": "g/day"}, {"measurement": "Feed Utilization kg of FI/kg of LW", "setting": "balhimycin 60 mg/kg of feed", "result": "1.64 kg of FI/kg of LW"}, {"measurement": "Live weight End", "setting": "balhimycin 60 mg/kg of feed", "result": 1600.0, "unit": "g"}]}]}
